Where two headings read alike, the source gives them in different places.
What was measured:
Test in all cases: Test A postemergence
Type in all cases: in vivo
[1] = test system: barnyardgrass (Echinochloa crus-galli); details: Echinochloa crus-galli, post-emergence, 240 h; for pest or weed control at 125 g/ha: 125 g ai/ha; for pest or weed control at 500 g/ha: 500 g ai/ha
Procedure, shortened: (§1)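 Seeds sprayed preemergence with a directed soil spray, or plants at 2 to 10 cm height and one- to two-leaf stage sprayed postemergence, with test chemicals in a non-phytotoxic solvent mixture containing surfactant, in loam soil–sand blend. Injury rated visually against untreated controls after about 10 d in greenhouse, 0 (no effect) to 100 (complete control).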

[2] = test system: ragweed (common ragweed, Ambrosia elatior); details: Ambrosia artemisiifolia, post-emergence, 240 h; for pest or weed control at 125 g/ha: 125 g ai/ha; for pest or weed control at 500 g/ha: 500 g ai/ha
Procedure, shortened: as §1

[3] = test system: giant foxtail (Setaria faberii); details: Setaria faberi, post-emergence, 240 h; for pest or weed control at 125 g/ha: 125 g ai/ha; for pest or weed control at 500 g/ha: 500 g ai/ha
Procedure, shortened: as §1

[4] = test system: blackgrass (Alopecurus myosuroides); details: Alopecurus myosuroides, post-emergence, 240 h; for pest or weed control at 125 g/ha: 125 g ai/ha; for pest or weed control at 500 g/ha: 500 g ai/ha
Procedure, shortened: as §1

[5] = test system: wheat (Triticum aestivum); details: Triticum aestivum, post-emergence, 240 h; for plant injury at 125 g/ha: 125 g ai/ha; for plant injury at 500 g/ha: 500 g ai/ha, visual injury, approx. 10 d
Procedure, shortened: as §1

[6] = test system: ryegrass, Italian (Italian ryegrass, Lolium multiflorum); details: Lolium multiflorum, post-emergence, 240 h; for pest or weed control at 125 g/ha: 125 g ai/ha; for pest or weed control at 500 g/ha: 500 g ai/ha
Procedure, shortened: as §1

[7] = postemergence, visual injury vs untreated controls after approx. 10 d, 0 = no effect, 100 = complete control, read-out: Barnyardgrass plant response rating (0 to 100 scale)
[8] = postemergence, visual injury vs untreated controls after approx. 10 d, 0 = no effect, 100 = complete control, read-out: Ragweed plant response rating (0 to 100 scale)
[9] = postemergence, visual injury vs untreated controls after approx. 10 d, 0 = no effect, 100 = complete control, read-out: Foxtail, Giant plant response rating (0 to 100 scale)
[10] = postemergence, visual injury vs untreated controls after approx. 10 d, 0 = no effect, 100 = complete control, read-out: Blackgrass plant response rating (0 to 100 scale)
[11] = postemergence, visual injury vs untreated controls after approx. 10 d, 0 = no effect, 100 = complete control, read-out: Ryegrass, Italian plant response rating (0 to 100 scale)
[12] = Postemergence, visual rating about 10 d after treatment, read-out: Barnyardgrass plant response rating (0 to 100 scale, 0 no effect, 100 complete control)
[13] = Postemergence, visual injury, 0 to 100 scale (0 no effect, 100 complete control), approx. 10 d, read-out: Plant response rating, Barnyardgrass
[14] = Postemergence, visual rating about 10 d after treatment, read-out: Ragweed plant response rating (0 to 100 scale)
[15] = Postemergence, visual injury, 0 to 100 scale (0 no effect, 100 complete control), approx. 10 d, read-out: Plant response rating, Ragweed
[16] = Postemergence, visual rating about 10 d after treatment, read-out: Foxtail, Giant plant response rating (0 to 100 scale)
[17] = Postemergence, visual injury, 0 to 100 scale (0 no effect, 100 complete control), approx. 10 d, read-out: Plant response rating, Foxtail, Giant
[18] = Postemergence, visual rating about 10 d after treatment, read-out: Blackgrass plant response rating (0 to 100 scale)
[19] = Postemergence, visual injury, 0 to 100 scale (0 no effect, 100 complete control), approx. 10 d, read-out: Plant response rating, Blackgrass
[20] = Postemergence, visual rating about 10 d after treatment, read-out: Wheat plant response rating (0 to 100 scale)
[21] = Postemergence, 0 to 100 scale (0 no effect, 100 complete control), read-out: Plant response rating, Wheat
[22] = Postemergence, visual rating about 10 d after treatment, read-out: Ryegrass, Italian plant response rating (0 to 100 scale)
[23] = Postemergence, visual injury, 0 to 100 scale (0 no effect, 100 complete control), approx. 10 d, read-out: Plant response rating, Ryegrass, Italian
[24] = postemergence, visual injury after approximately 10 d, 0 to 100 scale (0 no effect, 100 complete control), read-out: Plant response rating, Barnyardgrass
[25] = postemergence, visual injury after approximately 10 d, 0 to 100 scale (0 no effect, 100 complete control), read-out: Plant response rating, Ragweed
[26] = postemergence, visual injury after approximately 10 d, 0 to 100 scale (0 no effect, 100 complete control), read-out: Plant response rating, Foxtail, Giant
[27] = postemergence, visual injury after approximately 10 d, 0 to 100 scale (0 no effect, 100 complete control), read-out: Plant response rating, Blackgrass
[28] = postemergence, visual injury after approximately 10 d, 0 to 100 scale (0 no effect, 100 complete control), read-out: Plant response rating, Ryegrass, Italian
[29] = postemergence, visual injury after approximately 10 d, 0 to 100 scale (0 no effect, 100 complete control), read-out: Plant response rating, Wheat

Row | Compound | pest or weed control at 125 g/ha [1, 12] | pest or weed control at 500 g/ha [1, 13] | pest or weed control at 125 g/ha [2, 14] | pest or weed control at 500 g/ha [2, 15] | pest or weed control at 125 g/ha [3, 16] | pest or weed control at 500 g/ha [3, 17] | pest or weed control at 125 g/ha [4, 18] | pest or weed control at 500 g/ha [4, 19] | plant injury at 125 g/ha [5, 20] | plant injury at 500 g/ha [5, 21] | pest or weed control at 125 g/ha [6, 22] | pest or weed control at 500 g/ha [6, 23] | pest or weed control at 125 g/ha [1, 24] | pest or weed control at 125 g/ha [2, 25] | pest or weed control at 125 g/ha [3, 26] | pest or weed control at 125 g/ha [4, 27] | pest or weed control at 125 g/ha [6, 28] | plant injury at 125 g/ha [5, 29] | also measured
1 | O=C1NC[C@H](c2cccc(C(F)(F)F)c2)C1C(=O)Nc1c(F)cccc1CO (stereo partly drawn) [Compound 1240] | – | – | – | – | – | – | – | – | – | – | – | – | – | – | – | – | – | – | pest or weed control at 125 g/ha [1, 7]: 0%; pest or weed control at 500 g/ha ([1]; postemergence, 0 to 100 scale, 0 is no effect, 100 is complete control, read-out: Barnyardgrass plant response rating): 0%; pest or weed control at 125 g/ha [2, 8]: 0%; pest or weed control at 500 g/ha ([2]; postemergence, 0 to 100 scale, 0 is no effect, 100 is complete control, read-out: Ragweed plant response rating): 0%; pest or weed control at 125 g/ha [3, 9]: 0%; pest or weed control at 500 g/ha ([3]; postemergence, 0 to 100 scale, 0 is no effect, 100 is complete control, read-out: Foxtail, Giant plant response rating): 0%; pest or weed control at 125 g/ha [4, 10]: 0%; pest or weed control at 500 g/ha ([4]; postemergence, 0 to 100 scale, 0 is no effect, 100 is complete control, read-out: Blackgrass plant response rating): 0%; plant injury at 125 g/ha ([5]; postemergence, visual injury vs untreated controls after approx. 10 d, 0 = no effect, 100 = complete control, read-out: Wheat plant response rating (0 to 100 scale)): 0%; pest or weed control at 125 g/ha [6, 11]: 0%; pest or weed control at 500 g/ha ([6]; postemergence, 0 to 100 scale, 0 is no effect, 100 is complete control, read-out: Ryegrass, Italian plant response rating): 0%
2 | COc1cc([C@H]2CN(C)C(=O)[C@@H]2C(=O)Nc2cccc(F)c2C)ccc1F [Compound 1300] | 80% | 90% | 0% | 0% | 80% | 90% | 30% | 50% | 0% | 50% | 0% | 30% | – | – | – | – | – | – | –
3 | Cc1cc([C@H]2CN(C)C(=O)[C@@H]2C(=O)Nc2cccc(F)c2F)cc(C)c1C [Compound 796] | – | – | – | – | – | – | – | – | – | – | – | – | 90% | 0% | 90% | 30% | 40% | – | pest or weed control at 31 g/ha ([1]; Postemergence, 31 g ai/ha, visual injury after approx. 10 d, 0 to 100 scale, 0 no effect, 100 complete control, read-out: Plant response rating, Barnyardgrass): 80%; pest or weed control at 31 g/ha ([2]; Postemergence, 31 g ai/ha, visual injury after approx. 10 d, 0 to 100 scale, 0 no effect, 100 complete control, read-out: Plant response rating, Ragweed): 0%; pest or weed control at 31 g/ha ([3]; Postemergence, 31 g ai/ha, visual injury after approx. 10 d, 0 to 100 scale, 0 no effect, 100 complete control, read-out: Plant response rating, Foxtail, Giant): 80%; pest or weed control at 31 g/ha ([4]; Postemergence, 31 g ai/ha, visual injury after approx. 10 d, 0 to 100 scale, 0 no effect, 100 complete control, read-out: Plant response rating, Blackgrass): 0%; plant injury at 31 g/ha ([5]; Postemergence, 31 g ai/ha, visual injury after approx. 10 d, 0 to 100 scale, 0 no effect, 100 complete control, read-out: Plant response rating, Wheat): 30%; pest or weed control at 31 g/ha ([6]; Postemergence, 31 g ai/ha, visual injury after approx. 10 d, 0 to 100 scale, 0 no effect, 100 complete control, read-out: Plant response rating, Ryegrass, Italian): 0%
4 | CN1C[C@H](c2ccc(C#N)cc2)[C@@H](C(=O)Nc2cccc(F)c2F)C1=O (racemic) [Compound 775] | – | – | – | – | – | – | – | – | – | – | – | – | 50% | 20% | 60% | 0% | 20% | 20% | –
5 | Cc1ccc(NC(=O)[C@H]2C(=O)N(C)C[C@@H]2c2cc(F)cc(F)c2)c(F)c1F [Compound 771] | – | – | – | – | – | – | – | – | – | – | – | – | 90% | 20% | 90% | 70% | 20% | 30% | –
6 | CN1C[C@H](c2cc(C(F)(F)F)cs2)[C@@H](C(=O)Nc2cccc(F)c2F)C1=O [Compound 1377] | 90% | 90% | 20% | 60% | 80% | 80% | 20% | 60% | 30% | 60% | 30% | 60% | – | – | – | – | – | – | –
7 | COc1cc([C@H]2CN(C)C(=O)[C@@H]2C(=O)Nc2ccccc2F)ccc1F [Compound 1298] | 80% | 80% | 0% | 0% | 70% | 90% | 0% | 0% | 0% | 20% | 0% | 0% | – | – | – | – | – | – | –
8 | CN1C[C@H](c2ccc(F)c(C#N)c2)[C@@H](C(=O)Nc2cccc(F)c2F)C1=O [Compound 1255] | – | 100% | – | 40% | – | 80% | – | 60% | – | 60% | – | 40% | – | – | – | – | – | – | pest or weed control at 125 g/ha [1, 7]: 90%; pest or weed control at 125 g/ha [2, 8]: 0%; pest or weed control at 125 g/ha [3, 9]: 80%; pest or weed control at 125 g/ha [4, 10]: 0%; pest or weed control at 125 g/ha [6, 11]: 20%
9 | CN1C[C@H](c2ccc(F)c(OC(F)(F)C(F)F)c2)[C@@H](C(=O)Nc2ccccc2F)C1=O [Compound 740] | – | – | – | – | – | – | – | – | – | – | – | – | 90% | 0% | 90% | 30% | 50% | 50% | –
